From patent publication US6635234B1, “Preparation and use of radium-223 to target calcified tissues for pain palliation, bone cancer therapy, and bone surface conditioning” (Anticancer Therapeutic Inventions AS, priority 1999, dated 2003)
Several values for one entry are separate records, joined by “and”; a condition that tells them apart may be missing. Equal values may be shown once.

Assays:
[1] = system: MT-1 human breast cancer cells; conditions: treatment seven days after tumour cell inoculation; cited from earlier work
[2] = bone samples; after radium-226 had been administered to dogs; cited from earlier work
[3] = Biodistribution of radium-223 in Balb/C mice; type: in vivo; conditions: for % of injected dose per gram, femur: 9 kBq in isotonic saline
Experimental: (§1) Methods: Young male Balb/C mice with a body weight of 19-21 g were injected with 9 kBq of ^223Ra in 150 μl of isotonic saline. Groups of five animals were sacrificed and dissected at 6 h and 3 days after injection. Sample weight was measured and samples were counted using (A) a “well type” NaI scintillation crystal (Harshaw Chemie BV, De Meern, Holland) combined with a Scaler Timer ST7 (NE Technology Ltd, Reading, UK) digital unit, (B) a Beckman LS 6500 (Beckman Instruments Inc. Fullerton, Calif., USA). Relative abundances of radionuclides were studied in blood, liver, kidney, and in standard samples with mother/daughter in equilibrium, using a Ge-detector (Canberra, Meriden, Conn., USA) combined with an amplifier and bias supply from EG&G Ortec (Oak Ridge, Tenn., USA).

[4] = Gamma spectroscopy of the 211Bi:223Ra ratio in tissues versus a standard solution; type: in vivo, Balb/C mice
Experimental: as §1
The ratio of ^211Bi: ^223Ra was in the spleen at the 6 hour point on average 54% compared to a standard solution. In liver and kidneys on the other hand, the ^211Bi: ^223Ra ratios in the samples were on the average 256 and 207% of the standards respectively. […] Also the ^211Bi activity in soft tissues was in general very low compared to bone activity of this nuclide. The ^211Bi in the soft tissues may have been generated from ^223Ra present in soft tissues.

[5] = Localization Index (211Bi vs 223Ra retention) in femur by gamma spectroscopy; type: in vivo, mice; conditions: average
Experimental: To examine if there was a difference in radioisotope retention between radium-223 and bismuth-211 in bone samples, gamma spectroscopic data for bone versus a standard solution with ^223Ra and daughter radionuclides in equilibrium was studied.
Methods: Gamma spectroscopy with a germanium detector (Canberra, Meriden, Conn., USA) was performed on samples of femur from mice immediately after sacrificing and dissecting the animals. Samples of a standard solution of ^223Ra and daughter radionuclides in equilibrium were studied. The distinct gamma peaks at 351.0 keV (^211Bi) and 154.2 keV (^223Ra) were used. A Localization Index (LI) was determined as follows:
E.g., BBi−^211Bi count rate in bone; SRa−^223Ra count rate in standard
Gamma spectra from five samples from the 6 h group and the 3 days group respectively were compared, to five and three samples from the standard solution respectively, using Student t-test for data columns.

[6] = Release of daughter isotopes from fragmented femur washed with PBS; type: in vivo, mice
Experimental: To study potential release of daughter isotopes after ^223Ra was incorporated in bone, due to either nuclear recoil or diffusion processes, femurs from five animals killed 6 h, and 5 animals killed 3 days after injection were examined.
Methods: The bones were cleaved longitudinally, to expose the red marrow (spongious) areas, and thereafter cut into small fragments of less than 3 mg. Thereafter the samples were washed with Dulbeccos PBS (Sigma-Aldrich CO. LTD., Irvine, UK) using centrifugation. The supernatant was removed, mixed with scintillation liquid (Insta-Gel 11 plus, Packard BioScience BV, Groningen, The Netherlands) and counted on a scintillation counter (Beckman Instruments Inc. Fullerton, Calif., USA). After one day sample counting was repeated. A difference in counts after correcting for ^223Ra decay between the two measurements was used as indication of release of daughter nuclide(s) from bone matrix.

[7] = system: MT-1 human breast cancer cells; test: MT-1/nude rat model of skeletal metastases; type: in vivo, nude rats
Text: It has been developed animal models with experimental metastasis pattern resembling those frequently observed in human patients (Engebraaten and Fodstad, 1999). One of these models consists of MT-1 cells injected intracardially into nude rats and is characterized by the consistent development of hind leg paralysis in the animals.
Method: The therapeutic potential of radium-223 was studied in the MT-1/nude rat model where animals were inoculated with 1×10^6 MT-1 human breast cancer cells by injection into the left ventricle of the heart as described (Engebraaten and Fodstad,. 1999). These animals usually develop paralysis caused by growth of tumours in the spine. Groups of 4 and 5 animals each were then treated seven days later by receiving an intravenous injection of 200 μl of a vehicle solution without or with 10 kBq of radium-223 according to the invention.

SMILES: N.N.[Cl][Pt][Cl] [cisplatin]
- Effect on survival [1]: did not improve survival

SMILES: [226Ra] [radium-226]
- Radon-222 escaped from the bone [2]: 89.5-94.25%

SMILES: COc1cccc2c1C(=O)c1c(O)c3c(c(O)c1C2=O)C[C@@](O)(C(=O)CO)C[C@@H]3O[C@H]1C[C@H](N)[C@H](O)[C@H](C)O1 [doxorubicin]
- Effect on survival [1]: did not improve survival

SMILES: [223Ra] [radium-223]
- Femur to blood ratio ([3]; 6 h after injection): 129
- Femur to spleen ratio ([3]; 6 h after injection): 6.4
- Concentration in bone compared to soft tissues ([3]; 6 h and 3 days): selectively concentrated in bone
- Femur to blood ratio ([3]; 3 days after injection): 691
- Femur to spleen ratio ([3]; 3 days after injection): 23.7
- % of injected dose per gram, blood ([3]; 6 hours): 0.20 ± 0.23 % of injected dose per gram
- % of injected dose per gram, blood ([3]; 3 days): 0.05 ± 0.10 % of injected dose per gram
- % of injected dose per gram, brain ([3]; 6 hours): 0.04 ± 0.01 % of injected dose per gram
- % of injected dose per gram, brain ([3]; 3 days): 0.12 ± 0.12 % of injected dose per gram
- % of injected dose per gram, femur ([3]; 6 hours after injection): 25.86 ± 1.99 % of injected dose per gram
- % of injected dose per gram, femur ([3]; 3 days after injection): 34.55 ± 7.87 % of injected dose per gram
- % of injected dose per gram, heart ([3]; 6 hours): 0.10 ± 0.10 % of injected dose per gram
- % of injected dose per gram, heart ([3]; 3 days): 0.06 ± 0.07 % of injected dose per gram
- % of injected dose per gram, kidney ([3]; 6 hours): 4.04 ± 0.33 % of injected dose per gram
- % of injected dose per gram, kidney ([3]; 3 days): 0.38 ± 0.08 % of injected dose per gram
- % of injected dose per gram, large intestine ([3]; 6 hours): 2.30 ± 0.60 % of injected dose per gram
- % of injected dose per gram, large intestine ([3]; 3 days): 0.13 ± 0.02 % of injected dose per gram
- % of injected dose per gram, liver ([3]; 6 hours): 0.89 ± 0.18 % of injected dose per gram
- % of injected dose per gram, liver ([3]; 3 days): 0.22 ± 0.32 % of injected dose per gram
- % of injected dose per gram, lung ([3]; 6 hours): 0.59 ± 0.56 % of injected dose per gram
- % of injected dose per gram, lung ([3]; 3 days): 0.06 ± 0.07 % of injected dose per gram
- % of injected dose per gram, muscle ([3]; 6 hours): 0.72 ± 0.39 % of injected dose per gram
- % of injected dose per gram, muscle ([3]; 3 days): 0.30 ± 0.16 % of injected dose per gram
- % of injected dose per gram, small intestine ([3]; 6 hours): 0.79 ± 0.26 % of injected dose per gram
- % of injected dose per gram, small intestine ([3]; 3 days): 0.04 ± 0.03 % of injected dose per gram
- % of injected dose per gram, spleen ([3]; 6 hours): 4.06 ± 1.4 % of injected dose per gram
- % of injected dose per gram, spleen ([3]; 3 days): 1.46 ± 0.54 % of injected dose per gram
- Difference in relative distribution of radium-223 and its daughters (abundance of 211Bi) ([4]; bone and most soft tissues, gamma spectroscopy): no significant difference
- Ratio of 211Bi:223Ra, % of the standards ([4]; kidneys, average): 207%
- Ratio of 211Bi:223Ra, % of the standards ([4]; liver, average): 256%
- Ratio of 211Bi:223Ra compared to a standard solution ([4]; spleen, 6 hour point, average): 54%
- Localization Index LI=(BBi/SBi)/(BRa/SRa) ([5]; 6 h point, P=0.059): 0.85
- Localization Index LI=(BBi/SBi)/(BRa/SRa) ([5]; 3 day point, P=0.749): 0.97
- Activity dissolved in PBS during washing, compared to the total activity in bone ([6]; animals killed after 6 hours, average): 1.8%
- Translocation of daughter isotopes from bone ([6]; animals killed after 6 hours, probably): less than 2%
- Activity of washing solutions counted again, of the bone sample ([6]; animals killed after 6 hours, recounted after 12 h, average): 0.2%
- Counts in the washing solution compared to the background ([6]; animals killed after 3 days): no significant counts
- Translocation, below detection limit, of the total bone radioactivity ([6]; animals killed after 3 days, estimated detection limit): less than 1%
- Anti-tumour effect in animals with skeletal metastases ([7]; 10 kBq i.v.): significant anti-tumour effect
- Time to paralysis after tumour cell inoculation (individual animals) ([7]; 10 kBq i.v. seven days after inoculation, group of five animals, listed as 223Ra): 26 days and 40 days and 64 days
- Survival without signs of paralysis, two remaining animals (follow-up period) ([7]; 10 kBq i.v. seven days after inoculation, two of five animals): ≥ 90 days
